The source made the active and inactive calls. The rule behind the calls is not given here.
What was measured:
[1] = test system: Mus musculus; assay: Antidiabetic activity in B6D2F1 Harlan mouse assessed as increase in serum insulin level at 0.10 mg/kg, sc administered 15 mins prior glucose challenge measured 7.5 mins post glucose challenge by ELISA; assay type: functional, organism-based; parameters: dose 0.1 mg/kg
[2] = test system: Mus musculus; assay: Antidiabetic activity in B6D2F1 Harlan mouse assessed as increase in serum insulin level at 0.30 mg/kg, sc administered 15 mins prior glucose challenge measured 7.5 mins post glucose challenge by ELISA; assay type: functional; settings: dose 0.3 mg/kg; route subcutaneous
[3] = test system: Mus musculus; assay: Antidiabetic activity in B6D2F1 Harlan mouse assessed as increase in serum insulin level at 1 mg/kg, sc administered 15 mins prior glucose challenge measured 7.5 mins post glucose challenge by ELISA; assay type: functional; settings: route subcutaneous
[4] = test system: Mus musculus; assay: Antidiabetic activity in B6D2F1 Harlan mouse assessed as increase in serum insulin level at 3 mg/kg, sc administered 15 mins prior glucose challenge measured 7.5 mins post glucose challenge by ELISA; assay type: functional; settings: route subcutaneous
[5] = test system: Mus musculus; assay: Antidiabetic activity in B6D2F1 Harlan mouse assessed as increase in serum insulin level at 5 mg/kg, sc administered 15 mins prior glucose challenge measured 7.5 mins post glucose challenge by ELISA; assay type: functional; settings: route subcutaneous
[6] = test system: Mus musculus; assay: Antidiabetic activity in B6D2F1 Harlan mouse assessed as increase in serum insulin level at 30 mg/kg, sc administered 15 mins prior glucose challenge measured 7.5 mins post glucose challenge by ELISA; assay type: functional; settings: route subcutaneous
[7] = Clearance in rat at 0.89 mg/kg, iv; assay type: ADME, organism-based; parameters: dose 0.89 mg/kg, route intravenous; settings: in vivo
[8] = AUC in rat at 0.89 mg/kg, iv; assay type: ADME, organism-based; parameters: dose 0.89 mg/kg, route intravenous; settings: plasma
[9] = Volume of distribution at steady state in rat at 0.89 mg/kg, iv; assay type: ADME, organism-based; parameters: dose 0.89 mg/kg, route intravenous; settings: in vivo, read-out: Vdss
[10] = Half life in rat at 0.89 mg/kg, iv; assay type: ADME, organism-based; parameters: dose 0.89 mg/kg, route intravenous; settings: in vivo
[11] = AUC in rat at 2 mg/kg, po; assay type: ADME, organism-based; parameters: dose 2 mg/kg, route oral; settings: plasma
[12] = Mean residence time in rat at 2 mg/kg, po; assay type: ADME, organism-based; parameters: dose 2 mg/kg, route oral; settings: in vivo
[13] = Oral bioavailability in rat at 2 mg/kg; assay type: ADME, organism-based; settings: in vivo
[14] = target: T1, Probable G-protein coupled receptor 142 (Mus musculus) (UniProt Q7TQN9); assay: Agonist activity at mouse GPR142 expressed in HEK293 cells by inositol phosphate accumulation assay relative to control; assay type: functional, cell-based
T1 sequence (whole entry): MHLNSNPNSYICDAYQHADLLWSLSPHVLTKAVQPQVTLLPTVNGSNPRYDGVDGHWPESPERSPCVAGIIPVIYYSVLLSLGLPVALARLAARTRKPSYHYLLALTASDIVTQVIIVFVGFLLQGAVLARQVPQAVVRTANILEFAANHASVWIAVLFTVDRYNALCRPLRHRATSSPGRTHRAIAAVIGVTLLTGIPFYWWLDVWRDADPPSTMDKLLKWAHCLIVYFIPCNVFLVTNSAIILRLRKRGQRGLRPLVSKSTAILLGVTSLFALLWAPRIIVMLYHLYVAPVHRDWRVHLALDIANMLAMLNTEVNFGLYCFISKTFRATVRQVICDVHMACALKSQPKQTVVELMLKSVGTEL

[15] = Metabolic stability of rat microsomes assessed as compound turnover at 1 uM after 30 mins by LC-MS analysis; assay type: ADME, Microsome; settings: read-out: Drug metabolism
[16] = Metabolic stability of human microsomes assessed as compound turnover at 1 uM after 30 mins by LC-MS analysis; assay type: ADME, Microsome; settings: read-out: Drug metabolism
[17] = target: T2, Probable G-protein coupled receptor 142 (Homo sapiens) (UniProt Q7Z601); assay: Agonist activity at human GPR142 expressed in HEK293 cells assessed as inositol phosphate accumulation at 10 uM after 1 hr by scintillation counting; assay type: functional, cell-based
T2 sequence (whole entry): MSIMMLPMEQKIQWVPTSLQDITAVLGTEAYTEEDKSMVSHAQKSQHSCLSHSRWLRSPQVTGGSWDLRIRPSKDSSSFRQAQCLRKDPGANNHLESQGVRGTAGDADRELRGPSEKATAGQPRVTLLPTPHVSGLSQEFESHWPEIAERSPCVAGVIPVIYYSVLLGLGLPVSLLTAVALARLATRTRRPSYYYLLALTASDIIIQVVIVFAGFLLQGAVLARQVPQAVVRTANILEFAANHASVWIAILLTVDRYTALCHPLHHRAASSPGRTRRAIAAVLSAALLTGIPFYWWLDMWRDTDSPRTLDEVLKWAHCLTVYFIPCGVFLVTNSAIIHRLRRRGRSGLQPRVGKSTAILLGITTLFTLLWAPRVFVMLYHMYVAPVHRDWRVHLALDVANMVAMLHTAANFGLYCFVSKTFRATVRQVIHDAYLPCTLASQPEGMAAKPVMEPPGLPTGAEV

[18] = target: T3, Probable G-protein coupled receptor 142 (Homo sapiens, UniProt Q7Z601); assay: Agonist activity at human GPR142 expressed in HEK293 cells assessed as inositol phosphate accumulation after 1 hr by scintillation counting; assay type: functional, cell-based
T3 sequence (Q7Z601 whole entry): T2 sequence (whole entry)

[19] = target: T4, Probable G-protein coupled receptor 142 (Mus musculus, UniProt Q7TQN9); assay: Agonist activity at mouse GPR142 expressed in HEK293 cells by inositol phosphate accumulation assay; assay type: functional, cell-based
T4 sequence (Q7TQN9 whole entry): T1 sequence (whole entry)

[20] = test system: Mus musculus; assay: Antidiabetic activity in sc dosed B6D2F1 Harlan mouse assessed as decrease in blood glucose level administered 15 mins prior glucose challenge measured 7.5 mins post glucose challenge by glucometer analysis; assay type: functional, organism-based
[21] = test system: Mus musculus; assay: Antidiabetic activity in sc dosed B6D2F1 Harlan mouse assessed as increase in serum insulin level administered 15 mins prior glucose challenge measured 7.5 mins post glucose challenge by ELISA; assay type: functional, organism-based
[22] = test system: Mus musculus; assay: Antidiabetic activity in B6D2F1 Harlan mouse assessed as decrease in blood glucose level at 0.10 mg/kg, sc administered 15 mins prior glucose challenge measured 7.5 mins post glucose challenge by glucometer analysis; assay type: functional, organism-based; parameters: dose 0.1 mg/kg
[23] = test system: Mus musculus; assay: Antidiabetic activity in B6D2F1 Harlan mouse assessed as decrease in blood glucose level at 0.30 mg/kg, sc administered 15 mins prior glucose challenge measured 7.5 mins post glucose challenge by glucometer analysis; assay type: functional; parameters: scale not given: the % may be the effect or the level left; settings: dose 0.3 mg/kg; route subcutaneous
[24] = test system: Mus musculus; assay: Antidiabetic activity in B6D2F1 Harlan mouse assessed as decrease in blood glucose level at 1 mg/kg, sc administered 15 mins prior glucose challenge measured 7.5 mins post glucose challenge by glucometer analysis; assay type: functional; parameters: scale not given: the % may be the effect or the level left; settings: route subcutaneous
[25] = test system: Mus musculus; assay: Antidiabetic activity in B6D2F1 Harlan mouse assessed as decrease in blood glucose level at 3 mg/kg, sc administered 15 mins prior glucose challenge measured 7.5 mins post glucose challenge by glucometer analysis; assay type: functional; parameters: scale not given: the % may be the effect or the level left; settings: route subcutaneous
[26] = test system: Mus musculus; assay: Antidiabetic activity in B6D2F1 Harlan mouse assessed as decrease in blood glucose level at 5 mg/kg, sc administered 15 mins prior glucose challenge measured 7.5 mins post glucose challenge by glucometer analysis; assay type: functional; parameters: scale not given: the % may be the effect or the level left; settings: route subcutaneous
[27] = test system: Mus musculus; assay: Antidiabetic activity in B6D2F1 Harlan mouse assessed as decrease in blood glucose level at 30 mg/kg, sc administered 15 mins prior glucose challenge measured 7.5 mins post glucose challenge by glucometer analysis; assay type: functional; parameters: scale not given: the % may be the effect or the level left; settings: route subcutaneous

O=C(Nc1cc(-c2ccncc2)c[nH]c1=O)[C@H](Cc1ccccc1)NC1(c2ccccn2)CC1
Activity [1]: inactive | Activity [2]: 15% | Activity [3]: 41% | Activity [4]: 58% | Activity [5]: 81% | Activity [6]: 98% | clearance [7]: 83.3 mL/min/kg | AUC [8]: 177 ng·h/mL | Vd [9]: 1.1 L/kg | half-life [10]: 12 min | AUC [11]: 77 ng·h/mL | MRT [12]: 107 min | bioavailability [13]: 20% | Emax [14]: 81% | metabolised at 0.5 h, 1 µM [15]: 60% | metabolised at 0.5 h, 1 µM [16]: < 10% | Emax [17]: 127% | EC50 [18]: 54 nM | EC50 [19]: 1.8 nM | Activity [20]: Dose-dependent effect | EC50 [20]: 850 nM | Activity [21]: Dose-dependent effect | EC50 [21]: 290 nM | Activity [22]: inactive | Activity [23]: 0% | Activity [24]: 3% | Activity [25]: 4% | Activity [26]: 15% | Activity [27]: 13%
